Where two headings read alike, the source gives them in different places.
What was measured:
[1] = molecular target: human RORγt ligand binding domain (RORγt LBD) (Homo sapiens (Human), UniProt P51449); assay: RORγt ThermoFluor® assay (thermal shift binding); settings: read-out: ThermoFluor® Assay, Kd
In short: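 Thermal shift with 0.065 mg/mL RORγt LBD and 60 μM 1,8-ANS in 100 mM Hepes pH 7.0, 10 mM NaCl, 2.5 mM GSH, 0.002% Tween-20.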

[2] = molecular target: full-length human RORγt (Homo sapiens (Human), UniProt P51449); assay: RORγt (full-length human) reporter assay, conditions A or B, HEK293T cells; type: cell-based; settings: for inhibition at 2 µM / inhibition at 6 µM: HEK-293T; for inhibition at 2 µM: 2 μM compound concentration, read-out: RORγt (FL) Reporter Assay A or B, % inhibition; for IC50: RORγt (FL) Reporter Assay A or B, IC50, HEK293T cells; for inhibition at 6 µM: read-out: RORγt (FL) Reporter Assay A or B, % inhibition @ 6 μM
In short: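 Dual-luciferase read-out was taken after an overnight (16–20 h) compound exposure. Firefly data were scaled between DMSO-only and saturating reference compound, Renilla-normalized, then plotted against concentration for IC50.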

Chain of full-length human RORγt (P51449 other isoform, or with tags, fused parts or gaps): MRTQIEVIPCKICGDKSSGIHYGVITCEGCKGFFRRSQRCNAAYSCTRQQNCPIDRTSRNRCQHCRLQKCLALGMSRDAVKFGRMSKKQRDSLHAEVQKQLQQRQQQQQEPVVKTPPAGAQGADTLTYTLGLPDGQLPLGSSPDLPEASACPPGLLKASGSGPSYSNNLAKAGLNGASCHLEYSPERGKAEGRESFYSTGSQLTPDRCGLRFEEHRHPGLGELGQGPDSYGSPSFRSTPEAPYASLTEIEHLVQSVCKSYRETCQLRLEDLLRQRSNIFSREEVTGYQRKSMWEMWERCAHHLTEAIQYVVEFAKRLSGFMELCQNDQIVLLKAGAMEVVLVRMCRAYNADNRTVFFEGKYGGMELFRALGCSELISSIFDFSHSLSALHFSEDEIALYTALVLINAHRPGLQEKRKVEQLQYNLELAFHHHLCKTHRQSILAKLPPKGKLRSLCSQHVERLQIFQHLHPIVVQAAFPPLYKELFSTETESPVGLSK
Chain of human RORγt ligand binding domain (RORγt LBD) (P51449 other isoform, or with tags, fused parts or gaps): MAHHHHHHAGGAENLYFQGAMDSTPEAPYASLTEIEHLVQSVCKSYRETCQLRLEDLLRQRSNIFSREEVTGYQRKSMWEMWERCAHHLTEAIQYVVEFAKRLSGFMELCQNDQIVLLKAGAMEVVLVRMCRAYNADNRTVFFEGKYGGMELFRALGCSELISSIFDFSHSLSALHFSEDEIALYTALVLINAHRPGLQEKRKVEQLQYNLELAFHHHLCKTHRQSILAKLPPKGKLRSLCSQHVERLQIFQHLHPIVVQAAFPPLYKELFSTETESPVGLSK

| Compound | Kd [1] | inhibition at 2 µM [2] | IC50 [2] | inhibition at 6 µM ([2]; 6 μM compound concentration) | inhibition at 6 µM [2] |
| --- | --- | --- | --- | --- | --- |
| CCn1nc(C(=O)NC[C@]2(O)CC[C@@H](S(C)(=O)=O)CC2)c(Cl)c1-c1ccc(N[C@H](C)C(F)(F)F)cc1OC [Example 24, 4-Chloro-1-ethyl-N-(((1s,4S)-1-hydroxy-4-(methylsulfonyl)cyclohexyl)methyl)-5-(2-methoxy-4-(((R)-1,1,1-trifluoropropan-2-yl)amino)phenyl)-1H-pyrazole-3-carboxamide] | 21 nM | 104% | 52 nM |  |  |
| CCn1nc(C(=O)NC[C@H]2CC[C@H](S(C)(=O)=O)CC2)c(Cl)c1-c1ccc(NCC(F)(F)F)cc1OC [Example 25, 4-Chloro-1-ethyl-5-(2-methoxy-4-((2,2,2-trifluoroethyl)amino)phenyl)-N-(((1r,4r)-4-(methylsulfonyl)cyclohexyl)methyl)-1H-pyrazole-3-carboxamide] | 31 nM |  | 120 nM | 105% |  |
| COc1cc(N[C@H](C)C(F)(F)F)ccc1-c1c(Cl)c(C(=O)NC[C@]2(O)CC[C@@H](S(C)(=O)=O)CC2)nn1C(C)(C)C [Example 27, 1-(tert-Butyl)-4-chloro-N-(((1s,4S)-1-hydroxy-4-(methylsulfonyl)cyclohexyl)methyl)-5-(2-methoxy-4-(((R)-1,1,1-trifluoropropan-2-yl)amino)phenyl)-1H-pyrazole-3-carboxamide] | 7.4 nM |  | 60 nM | 105% |  |
| COc1cc(N[C@H](C)C(F)(F)F)ccc1-c1c(Cl)c(C(=O)NC[C@]2(O)CC[C@@H](S(C)(=O)=O)CC2)nn1CC(C)C [Example 29, 4-Chloro-N-(((1s,4S)-1-hydroxy-4-(methylsulfonyl)cyclohexyl)methyl)-1-isobutyl-5-(2-methoxy-4-(((R)-1,1,1-trifluoropropan-2-yl)amino)phenyl)-1H-pyrazole-3-carboxamide] | 8.3 nM |  | 61 nM |  | 108% |

More lines, in order of falling Kd [1], values ahead:

| Kd [1] | inhibition at 2 µM [2] | IC50 [2] | inhibition at 6 µM ([2]; 6 μM compound concentration) | inhibition at 6 µM [2] | Compound |
| --- | --- | --- | --- | --- | --- |
| 7.2 nM |  | 41 nM |  | 105% | CCCn1nc(C(=O)NC[C@]2(O)CC[C@@H](S(C)(=O)=O)CC2)c(Cl)c1-c1ccc(N[C@H](C)C(F)(F)F)cc1OC [Example 31, 4-Chloro-N-(((1s,4S)-1-hydroxy-4-(methylsulfonyl)cyclohexyl)methyl)-5-(2-methoxy-4-(((R)-1,1,1-trifluoropropan-2-yl)amino)phenyl)-1-propyl-1H-pyrazole-3-carboxamide] |
| 3.9 nM |  | 29 nM | 108% |  | COc1cc(N[C@H](C)C(F)(F)F)ccc1-c1c(Cl)c(C(=O)NC[C@H]2CC[C@H](S(C)(=O)=O)CC2)nn1C(C)(C)C [Example 26, 1-(tert-Butyl)-4-chloro-5-(2-methoxy-4-(((R)-1,1,1-trifluoropropan-2-yl)amino)phenyl)-N-(((1r,4R)-4-(methylsulfonyl)cyclohexyl)methyl)-1H-pyrazole-3-carboxamide] |
| 2.5 nM | 103% | 23 nM |  |  | COc1cc(N[C@H](C)C(F)(F)F)ccc1-c1c(Cl)c(C(=O)NC[C@H]2CC[C@H](S(C)(=O)=O)CC2)nn1CC(C)C [Example 28, 4-Chloro-1-isobutyl-5-(2-methoxy-4-(((R)-1,1,1-trifluoropropan-2-yl)amino)phenyl)-N-(((1r,4R)-4-(methylsulfonyl)cyclohexyl)methyl)-1H-pyrazole-3-carboxamide] |
| 2.1 nM | 104% | 27 nM |  |  | CCCn1nc(C(=O)NC[C@H]2CC[C@H](S(C)(=O)=O)CC2)c(Cl)c1-c1ccc(N[C@H](C)C(F)(F)F)cc1OC [Example 30, 4-Chloro-5-(2-methoxy-4-(((R)-1,1,1-trifluoropropan-2-yl)amino)phenyl)-N-(((1r,4R)-4-(methylsulfonyl)cyclohexyl)methyl)-1-propyl-1H-pyrazole-3-carboxamide] |
